Measured values reported in PubChem BioAssay (NCI).
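Growth conditions: 96-well plates. Treatment: test compound, 48 hours, 5 concentrations. Analysis: linear interpolation between bracketing concentrations; unreached endpoints set to highest concentration. GI50 is the concentration that inhibits growth by half. Definition used: TGI = concentration required for complete inhibition of growth.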

Tests used:
Experiment in all cases: DTP human tumour cell line panel, 48 h
SK-OV-3 ovarian = system: SK-OV-3 ovarian
HT29 colon = system: HT29 colon
ACHN renal = system: ACHN renal
OVCAR-3 ovarian = system: OVCAR-3 ovarian
NCI-H460 lung = system: NCI-H460 lung
HCT-116 colon = system: HCT-116 colon
K-562 leukemia = system: K-562 leukemia
BT-549 breast = system: BT-549 breast
A498 renal = system: A498 renal
T-47D breast = system: T-47D breast
OVCAR-4 ovarian = system: OVCAR-4 ovarian
OVCAR-5 ovarian = system: OVCAR-5 ovarian
SW-620 colon = system: SW-620 colon
MDA-MB-231 breast = system: MDA-MB-231 breast
SNB-75 CNS = system: SNB-75 CNS
CAKI-1 renal = system: CAKI-1 renal
MALME-3M melanoma = system: MALME-3M melanoma
SF-295 CNS = system: SF-295 CNS
M14 melanoma = system: M14 melanoma
SK-MEL-28 melanoma = system: SK-MEL-28 melanoma
786-0 renal = system: 786-0 renal
SF-268 CNS = system: SF-268 CNS
MDA-MB-435 = system: MDA-MB-435
RPMI-8226 leukemia = system: RPMI-8226 leukemia
IGROV1 ovarian = system: IGROV1 ovarian
PC-3 prostate = system: PC-3 prostate
NCI-H23 lung = system: NCI-H23 lung
MOLT-4 leukemia = system: MOLT-4 leukemia
NCI-H522 lung = system: NCI-H522 lung
OVCAR-8 ovarian = system: OVCAR-8 ovarian
SN12C renal = system: SN12C renal
SK-MEL-5 melanoma = system: SK-MEL-5 melanoma
NCI/ADR-RES ovarian = system: NCI/ADR-RES ovarian
SR leukemia = system: SR leukemia
MCF7 breast = system: MCF7 breast
DU-145 prostate = system: DU-145 prostate
TK-10 renal = system: TK-10 renal
HOP-62 NSCLC = system: HOP-62 NSCLC
A549 NSCLC = system: A549 NSCLC
HCT-15 colon = system: HCT-15 colon
RXF 393 renal = system: RXF 393 renal
SK-MEL-2 melanoma = system: SK-MEL-2 melanoma
CCRF-CEM leukemia = system: CCRF-CEM leukemia
LOX IMVI melanoma = system: LOX IMVI melanoma
HS 578T breast = system: HS 578T breast
COLO 205 colon = system: COLO 205 colon
HCC-2998 colon = system: HCC-2998 colon
UO-31 renal = system: UO-31 renal
NCI-H226 lung = system: NCI-H226 lung
SNB-19 CNS = system: SNB-19 CNS
HOP-92 NSCLC = system: HOP-92 NSCLC
UACC-62 melanoma = system: UACC-62 melanoma
U251 CNS = system: U251 CNS
SF-539 CNS = system: SF-539 CNS
UACC-257 melanoma = system: UACC-257 melanoma
HL-60(TB) leukemia = system: HL-60(TB) leukemia
KM12 colon = system: KM12 colon

`COc1cc[nH]c1/C=C1\C(=O)Nc2ccc(F)c(C#CC3(O)CCOCC3)c21` was tested, and the GI50 (SK-OV-3 ovarian) was 441 nM, the TGI (SK-OV-3 ovarian) was over 25000 nM and the GI50 (HT29 colon) was 501 nM. The TGI (HT29 colon) was 2810 nM, the GI50 (ACHN renal) was 487 nM and the TGI (ACHN renal) was over 25000 nM. For the same compound, the GI50 (OVCAR-3 ovarian) was 911 nM, the TGI (OVCAR-3 ovarian) was 2250 nM and the GI50 (NCI-H460 lung) was 637 nM. The TGI (NCI-H460 lung) was 2700 nM, the GI50 (HCT-116 colon) was 538 nM and the TGI (HCT-116 colon) was over 25000 nM. It also gave a GI50 (K-562 leukemia) of 1360 nM, a TGI (K-562 leukemia) of over 25000 nM and a GI50 (BT-549 breast) of 556 nM. It also gave a TGI (BT-549 breast) of 1370 nM, a GI50 (A498 renal) of 573 nM and a TGI (A498 renal) of 1670 nM. It also gave a GI50 (T-47D breast) of 1100 nM, a TGI (T-47D breast) of 16000 nM and a GI50 (OVCAR-4 ovarian) of 2340 nM. It also gave a TGI (OVCAR-4 ovarian) of 14700 nM, a GI50 (OVCAR-5 ovarian) of 714 nM and a TGI (OVCAR-5 ovarian) of over 7160 nM. It also gave a GI50 (SW-620 colon) of 619 nM, a TGI (SW-620 colon) of over 8380 nM and a GI50 (MDA-MB-231 breast) of 885 nM. For the same compound, the TGI (MDA-MB-231 breast) was over 25000 nM, the GI50 (SNB-75 CNS) was 338 nM and the TGI (SNB-75 CNS) was 1940 nM. The GI50 (CAKI-1 renal) was 11 nM, the GI50 (MALME-3M melanoma) was 1220 nM and the TGI (MALME-3M melanoma) was 5810 nM. It also gave a GI50 (SF-295 CNS) of 849 nM, a TGI (SF-295 CNS) of 16400 nM and a GI50 (M14 melanoma) of 664 nM. For the same compound, the TGI (M14 melanoma) was 4280 nM, the GI50 (SK-MEL-28 melanoma) was 677 nM and the TGI (SK-MEL-28 melanoma) was 3110 nM. For the same compound, the GI50 (786-0 renal) was 824 nM, the TGI (786-0 renal) was over 25000 nM and the GI50 (SF-268 CNS) was 714 nM. It also gave a TGI (SF-268 CNS) of 2030 nM, a GI50 (MDA-MB-435) of 570 nM and a TGI (MDA-MB-435) of 4050 nM. The GI50 (RPMI-8226 leukemia) was 760 nM, the TGI (RPMI-8226 leukemia) was 1760 nM and the GI50 (IGROV1 ovarian) was 860 nM. It also gave a TGI (IGROV1 ovarian) of over 7180 nM, a GI50 (PC-3 prostate) of 669 nM and a TGI (PC-3 prostate) of 6520 nM. The GI50 (NCI-H23 lung) was 609 nM, the TGI (NCI-H23 lung) was 2610 nM and the GI50 (MOLT-4 leukemia) was 679 nM. It also gave a TGI (MOLT-4 leukemia) of 2920 nM, a GI50 (NCI-H522 lung) of 1080 nM and a TGI (NCI-H522 lung) of 4530 nM. For the same compound, the GI50 (OVCAR-8 ovarian) was 867 nM, the TGI (OVCAR-8 ovarian) was over 25000 nM and the GI50 (SN12C renal) was 615 nM. For the same compound, the TGI (SN12C renal) was over 25000 nM, the GI50 (SK-MEL-5 melanoma) was 497 nM and the TGI (SK-MEL-5 melanoma) was 1190 nM. It also gave a GI50 (NCI/ADR-RES ovarian) of 885 nM, a TGI (NCI/ADR-RES ovarian) of 8420 nM and a GI50 (SR leukemia) of 447 nM. It also gave a TGI (SR leukemia) of 2750 nM, a GI50 (MCF7 breast) of 758 nM and a TGI (MCF7 breast) of 4680 nM. The GI50 (DU-145 prostate) was 806 nM, the TGI (DU-145 prostate) was over 25000 nM and the GI50 (TK-10 renal) was 507 nM. The TGI (TK-10 renal) was 2920 nM, the GI50 (HOP-62 NSCLC) was 878 nM and the TGI (HOP-62 NSCLC) was over 10400 nM. The GI50 (A549 NSCLC) was 536 nM, the TGI (A549 NSCLC) was 2250 nM and the GI50 (HCT-15 colon) was 481 nM. The TGI (HCT-15 colon) was over 15300 nM, the GI50 (RXF 393 renal) was 305 nM and the TGI (RXF 393 renal) was 1010 nM. The GI50 (SK-MEL-2 melanoma) was 470 nM, the TGI (SK-MEL-2 melanoma) was 2140 nM and the GI50 (CCRF-CEM leukemia) was 713 nM. For the same compound, the TGI (CCRF-CEM leukemia) was 1860 nM, the GI50 (LOX IMVI melanoma) was 537 nM and the TGI (LOX IMVI melanoma) was 1770 nM. For the same compound, the GI50 (HS 578T breast) was 528 nM, the TGI (HS 578T breast) was 3560 nM and the GI50 (COLO 205 colon) was 408 nM. It also gave a TGI (COLO 205 colon) of 1130 nM, a GI50 (HCC-2998 colon) of 676 nM and a TGI (HCC-2998 colon) of 2590 nM. For the same compound, the GI50 (UO-31 renal) was 512 nM, the TGI (UO-31 renal) was over 6990 nM and the GI50 (NCI-H226 lung) was 498 nM. For the same compound, the TGI (NCI-H226 lung) was 2200 nM, the GI50 (SNB-19 CNS) was 1020 nM and the TGI (SNB-19 CNS) was over 19500 nM. The GI50 (HOP-92 NSCLC) was 678 nM, the TGI (HOP-92 NSCLC) was 2020 nM and the GI50 (UACC-62 melanoma) was 375 nM. It also gave a TGI (UACC-62 melanoma) of 929 nM, a GI50 (U251 CNS) of 519 nM and a TGI (U251 CNS) of 5430 nM. It also gave a GI50 (SF-539 CNS) of 489 nM, a TGI (SF-539 CNS) of 1030 nM and a GI50 (UACC-257 melanoma) of 749 nM. For the same compound, the TGI (UACC-257 melanoma) was 2760 nM, the GI50 (HL-60(TB) leukemia) was 686 nM and the TGI (HL-60(TB) leukemia) was 1600 nM. The GI50 (KM12 colon) was 10.4 nM and the TGI (KM12 colon) was 1920 nM.
